{
  "source": "ChEMBL document CHEMBL1134985",
  "about": "“Design and synthesis of 6-substituted amino-4-oxa-1-azabicyclo[3,2,0]heptan-7-one derivatives as cysteine proteases inhibitors” (Bioorg Med Chem Lett, 2002)",
  "key": {"[1]": {"target": "T1, Procathepsin L (Rattus norvegicus, UniProt P07154)", "T1 sequence (P07154 whole entry)": "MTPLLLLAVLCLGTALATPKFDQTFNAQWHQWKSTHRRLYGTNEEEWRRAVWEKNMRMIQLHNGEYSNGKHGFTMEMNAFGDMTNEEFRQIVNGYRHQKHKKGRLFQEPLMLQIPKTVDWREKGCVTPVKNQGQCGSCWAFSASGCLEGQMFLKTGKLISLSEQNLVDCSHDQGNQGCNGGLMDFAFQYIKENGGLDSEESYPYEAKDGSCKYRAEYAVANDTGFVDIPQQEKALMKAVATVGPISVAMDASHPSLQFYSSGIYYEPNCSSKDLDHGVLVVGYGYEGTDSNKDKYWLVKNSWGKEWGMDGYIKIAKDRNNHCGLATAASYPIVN", "assay": "In vitro Inhibitory activity against Cathepsin L cysteine protease by using Cbz-Phe-Arg-AMC"}, "[2]": {"target": "T2, Cathepsin K (Homo sapiens, UniProt P43235)", "T2 sequence (P43235 whole entry)": "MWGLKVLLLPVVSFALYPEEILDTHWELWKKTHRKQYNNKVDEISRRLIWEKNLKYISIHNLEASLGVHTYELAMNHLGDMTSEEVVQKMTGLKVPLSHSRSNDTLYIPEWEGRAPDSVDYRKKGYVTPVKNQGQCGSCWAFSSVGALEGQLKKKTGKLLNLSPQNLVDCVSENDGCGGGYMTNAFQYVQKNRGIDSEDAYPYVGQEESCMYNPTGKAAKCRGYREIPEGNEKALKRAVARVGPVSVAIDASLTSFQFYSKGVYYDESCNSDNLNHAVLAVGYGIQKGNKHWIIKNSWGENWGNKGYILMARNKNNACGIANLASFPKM", "assay": "In vitro Inhibitory activity against Cathepsin K cysteine protease by using Cbz-Phe-Arg-AMC"}, "[3]": {"target": "Cathepsin B (Homo sapiens, UniProt P07858)", "assay": "In vitro Inhibitory activity against Cathepsin B cysteine protease by using Cbz-Phe-Arg-AMC"}, "[4]": {"target": "Cathepsin S (Homo sapiens, UniProt P25774)", "sequence (P25774 whole entry)": "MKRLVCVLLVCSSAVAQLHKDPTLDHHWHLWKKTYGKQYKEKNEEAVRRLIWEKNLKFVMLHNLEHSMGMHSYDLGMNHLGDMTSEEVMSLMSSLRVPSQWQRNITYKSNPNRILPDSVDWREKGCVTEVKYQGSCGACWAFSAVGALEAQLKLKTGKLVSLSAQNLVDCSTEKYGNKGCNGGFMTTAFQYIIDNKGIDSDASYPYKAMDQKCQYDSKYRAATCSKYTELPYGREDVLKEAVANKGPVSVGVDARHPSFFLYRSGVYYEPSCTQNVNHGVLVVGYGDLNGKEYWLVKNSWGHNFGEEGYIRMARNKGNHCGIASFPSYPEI", "assay": "In vitro Inhibitory activity against Cathepsin S cysteine protease by using Cbz-Val-Val-Arg-AMC"}},
  "data": [
    {"compound": "C[C@H](NC(=O)OCc1ccccc1)C(=O)N[C@@H]1C(=O)N2CCO[C@H]12", "values": [
      {"measurement": "IC50", "setting": "[1]", "value": 38000, "unit": "nM"},
      {"measurement": "IC50", "setting": "[2]", "value": "> 2500", "unit": "nM"},
      {"measurement": "IC50", "setting": "[3]", "value": "> 50000", "unit": "nM"},
      {"measurement": "IC50", "setting": "[4]", "value": "> 2500", "unit": "nM"}
    ]},
    {"compound": "CC(C)[C@H](NC(=O)OCc1ccccc1)C(=O)N[C@@H]1C(=O)N2CCO[C@H]12", "values": [
      {"measurement": "IC50", "setting": "[1]", "value": 600, "unit": "nM"},
      {"measurement": "IC50", "setting": "[2]", "value": 100, "unit": "nM"},
      {"measurement": "IC50", "setting": "[3]", "value": 30000, "unit": "nM"},
      {"measurement": "IC50", "setting": "[4]", "value": 260, "unit": "nM"}
    ]},
    {"compound": "O=C(N[C@@H](Cc1ccccc1)C(=O)N[C@@H]1C(=O)N2CCO[C@H]12)OCc1ccccc1", "values": [
      {"measurement": "IC50", "setting": "[1]", "value": 85, "unit": "nM"},
      {"measurement": "IC50", "setting": "[2]", "value": 1630, "unit": "nM"},
      {"measurement": "IC50", "setting": "[3]", "value": 1760, "unit": "nM"},
      {"measurement": "IC50", "setting": "[4]", "value": 430, "unit": "nM"}
    ]},
    {"compound": "O=C(N[C@@H](Cc1ccccc1)C(=O)N[C@@H]1C(=O)N2CCO[C@@H]12)OCc1ccccc1", "values": [
      {"measurement": "IC50", "setting": "[1]", "value": 4, "unit": "nM"},
      {"measurement": "IC50", "setting": "[2]", "value": 5, "unit": "nM"},
      {"measurement": "IC50", "setting": "[3]", "value": 12200, "unit": "nM"},
      {"measurement": "IC50", "setting": "[4]", "value": 77, "unit": "nM"}
    ]},
    {"compound": "O=C(N[C@H](C(=O)N[C@@H]1C(=O)N2CCO[C@H]12)c1ccccc1)OCc1ccccc1", "values": [
      {"measurement": "IC50", "setting": "[1]", "value": 1830, "unit": "nM"},
      {"measurement": "IC50", "setting": "[3]", "value": "> 50000", "unit": "nM"}
    ]}
  ]
}
